In patent US5110911A, “Human tumor-associated Thomsen-Friedenreich antigen” (Biomira, Inc., priority 1989, dated 1992):

Legend:
49H.8 = settings: inhibitor concentration of 2 mg/ml; cited from earlier work
[1] = tested on: antigen capture by MAb 49H.8; assay: Inhibition of the antigen capture by synthetic carbohydrate haptens; type: binding
Description: (§1) Breakable strips of microtitre wells were coated with MAb […].8 or a control antibody (MOPC-104E), 1 μg/well, by overnight incubation at 4° C. The wells were then serially incubated with FBS 5% in PBS at 37° C. for 30 minutes, with antigen solution at 37° C. for two hours, and with radioiodinated PNA (2×10^5 cpm/well) at room temperature for two hours. The wells were washed with PBS containing 0.05% Tween-20 after each of the above steps. Each well was counted for ^125 I activity using a gamma counter.

[2] = tested on: TF Antigen Binding with MAb 49H.8 (647V Conditioned Medium); assay: Inhibition of TF antigen binding with MAb 49H.8 by synthetic carbohydrates in SRIA, 647V conditioned medium; parameters: species or system human
Description: as §1

[3] = tested on: TF Antigen Binding with MAb 49H.8 (LS174T Conditioned Medium); assay: Inhibition of TF antigen binding with MAb 49H.8 by synthetic carbohydrates in SRIA, LS174T conditioned medium; parameters: species or system human
Description: as §1

[4] = tested on: TF Antigen Binding with MAb 49H.8 (PE89); assay: Inhibition of TF antigen binding with MAb 49H.8 by synthetic carbohydrates in SRIA, PE89; parameters: species or system human
Description: as §1

[5] = tested on: TF Antigen Binding with MAb 49H.8 (Ta3-Ha Conditioned Medium); assay: Inhibition of TF antigen binding with MAb 49H.8 by synthetic carbohydrates in SRIA, Ta3-Ha conditioned medium; parameters: species or system murine
Description: as §1

carcinoma cell lines = settings: all nine cell lines named; cited from earlier work

Q: Which “inhibition in binding of 49H.8 to neuraminidase-treated erythrolytes” value (from here on “inhibition in binding”) (49H.8) does the source give for CC(=O)N[C@@H]1[C@@H](O[C@@H]2O[C@H](CO)[C@H](O)[C@H](O)[C@H]2O)[C@@H](O)[C@@H](CO)O[C@@H]1O [TF disaccharide, D-β-Gal (1-3)-α-GalNAc] here?
A: 33%

Q: For “p-nitrophenyl-α-D-galactoside [p-nitrophenyl α-D-galactoside]”, which “Inhibition of the positive reactivity in the sandwich assay (in words)” value (“Inhibition of the positive reactivity” below) [1] is on record?
A: did not show any inhibition

Q: With OC[C@H]1O[C@@H](Oc2ccccc2)[C@H](O)[C@@H](O)[C@H]1O [Phenyl-β-D-galactoside] as the molecule, how does the “% Inhibition ± SD, 647V Conditioned Medium” value ([2]; inhibitor 5 mM) read?
A: 66.60%

Q: What about the “% Inhibition ± SD, 647V Conditioned Medium” value ([2]; inhibitor 10 mM) of the same molecule?
A: 90.12%

Q: And the “% Inhibition ± SD, LS174T Conditioned Medium” value ([3]; inhibitor 5 mM)?
A: 86.95%

Q: And the “% Inhibition ± SD, LS174T Conditioned Medium” value ([3]; inhibitor 10 mM)?
A: 95.91%

Q: And the “% Inhibition ± SD, PE89” value ([4]; inhibitor 5 mM)?
A: 45.48%

Q: And the “% Inhibition ± SD, PE89” value ([4]; inhibitor 10 mM)?
A: 69.04%

Q: What about the “% Inhibition ± SD, Ta3-Ha Conditioned Medium” value ([5]; inhibitor 5 mM) of the same molecule?
A: 69.40%

Q: What about the “% Inhibition ± SD, Ta3-Ha Conditioned Medium” value ([5]; inhibitor 10 mM) of the same molecule?
A: 96.25%

Q: What about the “Inhibition of the positive reactivity” value [1] of the same molecule?
A: inhibited

Q: Which “Inhibition of the positive reactivity” value [1] does the source give for O=[N+]([O-])c1ccc(O[C@@H]2O[C@H](CO)[C@H](O)[C@H](O)[C@H]2O)cc1 [p-nitrophenyl-β-D-galactoside] here?
A: inhibited

Q: Which “inhibition in binding” value (49H.8) does the source give for OC[C@H]1OC(O)[C@H](O)[C@@H](O)[C@H]1O (stereo partly drawn) [D-Gal] here?
A: 5%

Q: Which “inhibition in binding” value (49H.8) does the source give for CC(=O)N[C@@H]1[C@@H](O[C@@H]2O[C@H](CO)[C@H](O)[C@H](O)[C@H]2O)[C@@H](O)[C@@H](CO)O[C@H]1O [beta anomer] here?
A: 29%

Q: For OC[C@H]1O[C@@H](Oc2ccccc2)[C@H](O)[C@@H](O)[C@@H]1O [Phenyl-β-D-glucoside], which “% Inhibition ± SD, 647V Conditioned Medium” value ([2]; inhibitor 5 mM) is on record?
A: -3.00%

Q: What about the “% Inhibition ± SD, 647V Conditioned Medium” value ([2]; inhibitor 10 mM) of the same molecule?
A: 0.58%

Q: And the “% Inhibition ± SD, LS174T Conditioned Medium” value ([3]; inhibitor 5 mM)?
A: -7.15%

Q: What about the “% Inhibition ± SD, LS174T Conditioned Medium” value ([3]; inhibitor 10 mM) of the same molecule?
A: -1.67%

Q: What about the “% Inhibition ± SD, PE89” value ([4]; inhibitor 5 mM) of the same molecule?
A: -6.41%

Q: And the “% Inhibition ± SD, PE89” value ([4]; inhibitor 10 mM)?
A: -4.61%

Q: And the “% Inhibition ± SD, Ta3-Ha Conditioned Medium” value ([5]; inhibitor 5 mM)?
A: 3.92%

Q: And the “% Inhibition ± SD, Ta3-Ha Conditioned Medium” value ([5]; inhibitor 10 mM)?
A: 1.38%

Q: What about the “Inhibition of the positive reactivity” value [1] of the same molecule?
A: did not show any inhibition

B1: PNA: lectin extracted from the peanut (Arachis hypogaea) which recognizes the terminal disaccharide of the TF-antigen (protein, UniProt P02872 24-273, looked up)
Galactose-binding lectin: AETVSFNFNSFSEGNPAINFQGDVTVLSNGNIQLTNLNKVNSVGRVLYAMPVRIWSSATGNVASFLTSFSFEMKDIKDYDPADGIIFFIAPEDTQIPAGSIGGGTLGVSDTKGAGHFVGVEFDTYSNSEYNDPPTDHVGIDVNSVDSVKTVPWNSVSGAVVKVTVIYDSSTKTLSVAVTNDNGDITTIAQVVDLKAKLPERVKFGFSASGSLGGRQIHLIRSWSFTSTLITTTRRSIDNNEKKIMNMASA
Q: Which “Binding to carcinoma cell lines” value (carcinoma cell lines) does the source give for B1 here?
A: marked
